Earlier results as cited in patent EP0077028B1, “Renin inhibitory peptides” (Merck & Co., Inc., priority 1981, dated 1987).

Tested on: hog renin
Settings: after the injection of hog renin into nephrectomized rats

In the case of pepstatin, the “blood pressure in vivo” value is listed as “reduce blood pressure”.
